The text below walks through data of PubChem BioAssay (NCI).

Test systems include DLD-1 colon; SF-268 CNS; UACC-257 melanoma; UACC-62 melanoma; U251 CNS; NCI-H460 lung; SNB-78 CNS; SK-OV-3 ovarian; MALME-3M melanoma; M19-MEL melanoma; DU-145 prostate.
Common to all, as to test: growth of human tumour cells (NCI), 48 h

Molecules are shown by their SMILES. “And” between values parts separate entries of the source, which are not always exact repeats. Equal entries are not always repeated.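 Compound exposure: 48 hours, 5 concentrations, 96-well plates. At the GI50, growth is halved. Definition used: TGI = concentration required for complete inhibition of growth.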 Some results are limits rather than exact numbers.

Take `CC1C(c2ccccc2)N(C)C(c2ccccc2)C(C)C1(O)c1ccccc1` (stereo not drawn): the TGI in the experiment with DLD-1 colon, in the experiment with SF-268 CNS, in the experiment with UACC-257 melanoma, in the experiment with UACC-62 melanoma, in the experiment on U251 CNS and with NCI-H460 lung was greater than 100 µM throughout. Also, the TGI with SNB-78 CNS, with SK-OV-3 ovarian, in the experiment with MALME-3M melanoma and with M19-MEL melanoma was greater than 100 µM throughout.

For the compound `C/C(=N\N=C(N)N)C(CN1CCOCC1)C(c1ccccc1)c1c(O)c2ccccc2oc1=O` (stereo not drawn), the TGI in the experiment on DLD-1 colon, with SF-268 CNS, with UACC-257 melanoma, in the experiment with UACC-62 melanoma, with U251 CNS and in the experiment on NCI-H460 lung was greater than 100 µM throughout. The TGI in the experiment on SNB-78 CNS, in the experiment on SK-OV-3 ovarian, with MALME-3M melanoma and in the experiment on M19-MEL melanoma was greater than 100 µM throughout.

Consider `COc1cc(/C=C2\[C@@H]3NC(Cc4c(OC)c(C)c(OC)c(OC)c43)C(=O)N2Cc2ccccc2)c(OC)c(C)c1OC`, for which the TGI in the experiment on DLD-1 colon was greater than 100 µM; with SF-268 CNS it was greater than 100 µM; with UACC-257 melanoma, greater than 100 µM; in the experiment with UACC-62 melanoma, greater than 100 µM; in the experiment with U251 CNS, greater than 100 µM; in the experiment on NCI-H460 lung it was 60.7 µM. Also, the TGI was greater than 100 µM in the experiment on SK-OV-3 ovarian, 91.4 µM in the experiment with MALME-3M melanoma and 77.3 µM with M19-MEL melanoma.

As for `CCC(=O)OCOc1ccc(/C=C2\CCC(CN(C)C)C2=O)cc1` (stereo not drawn), the TGI in the experiment on DLD-1 colon is 5.54 µM; in the experiment with SF-268 CNS, 22.5 µM; with UACC-257 melanoma, 10.6 µM; with UACC-62 melanoma, 13.6 µM; in the experiment on DU-145 prostate, 30.6 µM; in the experiment on U251 CNS it was 26.2 µM. The TGI in the experiment with NCI-H460 lung stood at 32.7 µM; in the experiment with SNB-78 CNS, 31.5 µM; with SK-OV-3 ovarian it was 29.1 µM; in the experiment on MALME-3M melanoma, 10.6 µM; in the experiment with M19-MEL melanoma, 11.1 µM.

Consider `O=C(CC12C3C4C1C1C2C3C41CC(=O)NO)NO` (stereo not drawn), for which the TGI was greater than 100 µM in the experiment with DLD-1 colon; greater than 100 µM in the experiment on SF-268 CNS; 64.3 µM in the experiment with UACC-257 melanoma; greater than 100 µM with UACC-62 melanoma; greater than 100 µM in the experiment on U251 CNS; 62.5 µM with NCI-H460 lung. Further, the TGI in the experiment with SNB-78 CNS and with MALME-3M melanoma was greater than 100 µM each time.

As to `OC1OCC(COc2cc(Cl)c(Cl)cc2Cl)OC1O` (stereo not drawn), the TGI in the experiment on DLD-1 colon, with SF-268 CNS, in the experiment on UACC-257 melanoma, in the experiment with UACC-62 melanoma, in the experiment with U251 CNS and with NCI-H460 lung was greater than 100 µM in each case. Also, the TGI in the experiment on SNB-78 CNS was 79.7 µM; in the experiment with SK-OV-3 ovarian, greater than 100 µM; in the experiment with MALME-3M melanoma, greater than 100 µM; in the experiment with M19-MEL melanoma, greater than 100 µM.

As for `CC1(C)CC(=O)C(CC2C(=O)CCCC2=O)C(=O)C1`, the TGI with DLD-1 colon, with SF-268 CNS, with UACC-257 melanoma, with UACC-62 melanoma, in the experiment with U251 CNS and in the experiment on NCI-H460 lung was greater than 100 µM each time. Also, the TGI in the experiment with SNB-78 CNS, in the experiment with SK-OV-3 ovarian, in the experiment with MALME-3M melanoma and in the experiment with M19-MEL melanoma was greater than 100 µM in each case.

Consider `CSc1ccc(N2C(=O)C3c4[nH]c5ccccc5c4C4CCC(C(C)(C)C)CC4C3C2=O)cc1` (stereo not drawn), for which the TGI in the experiment on DLD-1 colon was greater than 100 µM; in the experiment on SF-268 CNS it was 45.4 µM; with UACC-257 melanoma, greater than 100 µM; in the experiment with UACC-62 melanoma, 28.9 µM; in the experiment on U251 CNS, 31.5 µM; with NCI-H460 lung, 34.4 µM. Also, the TGI in the experiment with SNB-78 CNS was 31.1 µM; in the experiment on SK-OV-3 ovarian, 32.7 µM; in the experiment with MALME-3M melanoma, 42.9 µM; in the experiment with M19-MEL melanoma, greater than 100 µM.

Take `CC1(c2ccc(F)cc2)C2C(=O)NC(=O)C1C(=O)NC2=O` (stereo not drawn): the TGI in the experiment on DLD-1 colon, with SF-268 CNS, in the experiment with UACC-257 melanoma, in the experiment with UACC-62 melanoma, in the experiment on NCI-H460 lung and in the experiment on SNB-78 CNS was greater than 100 µM throughout. Moreover, the TGI in the experiment on SK-OV-3 ovarian, in the experiment with MALME-3M melanoma and with M19-MEL melanoma was greater than 100 µM each time.

In the case of `CCO/C=C\C12CCCC1NC(c1ccccc1)(c1ccccc1)O2` (stereo not drawn), the TGI is greater than 100 µM in the experiment on DLD-1 colon; greater than 100 µM in the experiment on SF-268 CNS; 85.5 µM in the experiment on UACC-257 melanoma; 53.4 µM with UACC-62 melanoma; greater than 100 µM in the experiment on U251 CNS; greater than 100 µM with NCI-H460 lung. For the same compound, the TGI in the experiment with SNB-78 CNS is greater than 100 µM; in the experiment on SK-OV-3 ovarian, greater than 100 µM; in the experiment with MALME-3M melanoma it was 54.3 µM; with M19-MEL melanoma, 64.5 µM.

`O=C(Nc1ccc(Br)cc1)C(=O)C(C(=O)c1ccc(Cl)c(Cl)c1)C1OC(=O)c2ccccc21` (stereo not drawn): the TGI is 39.6 µM in the experiment on DLD-1 colon; 21.4 µM in the experiment with SF-268 CNS; 38.9 µM in the experiment with UACC-257 melanoma; 26.4 µM with UACC-62 melanoma; 22.8 µM with U251 CNS; 38.2 µM in the experiment with NCI-H460 lung. Also, the TGI with SNB-78 CNS was greater than 100 µM; in the experiment on SK-OV-3 ovarian, greater than 100 µM; with MALME-3M melanoma, 24.1 µM; in the experiment with M19-MEL melanoma it was 31.1 µM.

As to `C=CCC1(CN(C)C)CC/C(=C\c2ccc3c(c2)OCO3)C1=O` (stereo not drawn), the TGI with DLD-1 colon was 81.1 µM; with SF-268 CNS it was greater than 100 µM; in the experiment on UACC-257 melanoma, greater than 100 µM; with UACC-62 melanoma, greater than 100 µM; with U251 CNS, greater than 100 µM; in the experiment with NCI-H460 lung, greater than 100 µM. Further, the TGI in the experiment on SNB-78 CNS, in the experiment with MALME-3M melanoma and in the experiment with M19-MEL melanoma was greater than 100 µM each time.

As for `CCCCCCCCCCCCCCNCC(OC)OC`, the TGI in the experiment on DLD-1 colon amounted to 28.6 µM; with SF-268 CNS it was 39.4 µM; with UACC-257 melanoma, 37.5 µM; in the experiment on UACC-62 melanoma it was 34.4 µM; with U251 CNS, 31.6 µM; in the experiment with NCI-H460 lung, 34.1 µM. Also, the TGI is 34.3 µM in the experiment on SNB-78 CNS, 33.1 µM in the experiment with SK-OV-3 ovarian, 35.3 µM in the experiment with MALME-3M melanoma and 32.3 µM in the experiment with M19-MEL melanoma.

Take `C=CC1=C(C)C(/C=c2\[nH]/c(=C/c3[nH]c(CC4NC(=O)C(C)/C4=C\C)c(C)c3CCC(=O)O)c(CC(=O)O)c2C)=NC1=O` (stereo not drawn): the TGI in the experiment on DLD-1 colon, with SF-268 CNS, with UACC-257 melanoma, in the experiment on UACC-62 melanoma, in the experiment on U251 CNS and in the experiment on NCI-H460 lung was greater than 100 µM each time. The TGI in the experiment on SNB-78 CNS, in the experiment with SK-OV-3 ovarian, with MALME-3M melanoma and with M19-MEL melanoma was greater than 100 µM throughout.

Regarding `CCC(O)CCCCCCCCCCCCCCC(=O)O` (stereo not drawn), the TGI in the experiment with DLD-1 colon, in the experiment on SF-268 CNS, with UACC-257 melanoma, in the experiment on UACC-62 melanoma, in the experiment on U251 CNS and with NCI-H460 lung was greater than 100 µM throughout. For the same compound, the TGI with SNB-78 CNS, in the experiment on SK-OV-3 ovarian, with MALME-3M melanoma and in the experiment on M19-MEL melanoma was greater than 100 µM in each case.

Turning to `COc1cc(C2c3cc4c(cc3[C@@H](NC3CCN(Cc5ccccc5)CC3)C3COC(=O)[C@H]23)OCO4)cc(OC)c1O` (stereo partly drawn), the TGI in the experiment with DLD-1 colon is 3.11 µM and 2.26 µM; with SF-268 CNS, 1.98 µM and 0.584 µM; with UACC-257 melanoma, 11.9 µM and 2.12 µM; in the experiment with UACC-62 melanoma, 1.38 µM and 0.216 µM; in the experiment on U251 CNS, 0.594 µM and 0.183 µM; in the experiment with NCI-H460 lung it was 0.194 µM and 0.116 µM. Further, the TGI in the experiment with SNB-78 CNS was 6.03 µM and 8.24 µM; in the experiment with SK-OV-3 ovarian it was 0.445 µM and 0.503 µM; in the experiment with MALME-3M melanoma it was 1.6 µM and 1.11 µM; in the experiment with M19-MEL melanoma it was 2.1 µM and 1.9 µM. Also, the GI50 was 1.42 µM and 0.256 µM with UACC-257 melanoma; 0.217 µM and 0.0359 µM with UACC-62 melanoma; 0.115 µM and 0.026 µM in the experiment with U251 CNS; less than 0.01 µM with NCI-H460 lung; 2.04 µM and 0.887 µM with SNB-78 CNS; 0.238 µM and 0.113 µM in the experiment on MALME-3M melanoma.

Consider `Cc1cc(-c2ccccc2)nc(Nc2cc3ccccc3[nH]2)n1`, for which the TGI with DLD-1 colon, in the experiment with SF-268 CNS, in the experiment on UACC-257 melanoma, in the experiment on UACC-62 melanoma, in the experiment with U251 CNS and in the experiment with NCI-H460 lung was greater than 100 µM in each case. Besides, the TGI with SNB-78 CNS, in the experiment with SK-OV-3 ovarian, in the experiment on MALME-3M melanoma and in the experiment with M19-MEL melanoma was greater than 100 µM in each case.

On to `CCCCCCCCCC1CC(=O)OC2=C1C(=O)CCC2` (stereo not drawn), for which the TGI in the experiment with DLD-1 colon, in the experiment on SF-268 CNS, with UACC-257 melanoma, in the experiment with UACC-62 melanoma, in the experiment on U251 CNS and with NCI-H460 lung was greater than 100 µM each time. In addition, the TGI with SNB-78 CNS, in the experiment on SK-OV-3 ovarian, with MALME-3M melanoma and in the experiment with M19-MEL melanoma was greater than 100 µM in each case.

With `Cc1cc(N(CCC#N)S(=O)(=O)c2ccccc2)ccc1C=Nc1ccc(C(=O)O)cc1`, the TGI in the experiment with DLD-1 colon is 4.11 µM; in the experiment with SF-268 CNS, greater than 60.7 µM; in the experiment with UACC-257 melanoma, 30 µM; with UACC-62 melanoma it was 37.1 µM; with DU-145 prostate, greater than 100 µM; in the experiment with U251 CNS, 38.2 µM. The TGI worked out at 29.9 µM with NCI-H460 lung; 34.7 µM with SNB-78 CNS; 48.9 µM with SK-OV-3 ovarian; 12 µM with MALME-3M melanoma; 7.32 µM in the experiment on M19-MEL melanoma.
